Patent publication US20080206253A1, “Method For Preventing or Treating Pain in a Mammal” (priority 2005, published 2008)
“Also recorded” adds a separate entry of the source.

Experiments:
[1] = system: phosphorylated p38 (P-p38); assay: Formalin-induced phosphorylation of spinal p38 (Western blot); assay type: in vivo, rat; conditions: IT p38α AS 30 μg or p38β AS 20 μg for 5 days; assessed 15 minutes after formalin; in comparison to MS treated rats
Protocol: Injection of formalin into the hind paw leads to phosphorylation of p38 MAP kinase in spinal cord, by 5 minutes after injection. Svensson et al., J Neurochem 86: 1534-1544, 2003b. A full time course was performed (0, 5, 15, 20, 30, 60 min) for formalin-induced phosphorylation of spinal p38 and found peak p38 phosphorylation at 15 min (FIG. 6A). As shown above, down regulation of spinal p380, leads to attenuation of formalin-induced hyperalgesia, it was hypothesized that down-regulation of spinal p38, would reduce the amount of phosphorylated p38 in the spinal cord after formalin injection.
(A) Representative western blots showing levels of P-p38, total p38 and β-actin in the contralateral (left side) and ipsilateral (right side) lumbar spinal cord at different time points after injection of formalin (2.5%, 50 μl) into the dorsal side of the right hind paw. (B) Rats were naïve (no IT treatment, no formalin paw injection) or treated with p38α AS (30 μg), p38β AS (20 μg) or missense (30 μg) for 5 days. On day six, formalin was injected to the hind paw and the level of phosphorylated p38 (P-p38) assessed 15 minutes after injection. […]
Western blot. […] After washing, the antibody-protein complexes were probed with appropriate secondary antibodies labeled with horseradish peroxidase for 1 hr at room temperature and detected with chemiluminescent reagents (SuperSignal, Pierce, Rockford, Ill.). […]

[2] = system: rats, IT SP (spinal NK-1 receptors); assay: IT substance P-evoked thermal hyperalgesia (paw withdrawal latency, Hargreaves device); assay type: in vivo, rat; conditions: for IT SP-induced thermal hyperalgesia (paw withdrawal latency): IT p38α AS 30 μg or p38β AS 20 μg daily for five days, IT SP 30 nmol, compared with MS group; for Base line thermal thresholds: before IT SP, after five days of IT treatment
Protocol: Yaksh et al., Nature 286: 155-157, 1980; Yaksh, Trends Pharmacol Sci 20: 329-337, 1999. […] Malmberg and Yaksh, Science 257: 1276-1279, 1992; Svensson et al., J Neurochem 86: 1534-1544, 2003. […] To investigate the contribution of p38α and p38β to SP-evoked hyperalgesia and p38 phosphorylation, spinal delivery of p38α and p38β AS and MS was carried out. Thermal withdrawal latencies was assessed after IT injection of SP and lumbar spinal cords collected immediately to compare the degree of spinal p38 phosphorylation at the hypothesized time of peak phosphorylation. IT injection of SP into the MS group produced an expected reduction of thermal withdrawal latency in comparison with IT saline injection into to vehicle treated animals (FIG. 7C). […] In contrast, IT SP-induced thermal hyperalgesia was attenuated in rats which had received p38β AS (FIG. 7E). […] Stripping and reprobing the western blot membranes confirmed that p38α protein expression was knocked down in p38α AS treated group (FIG. 7D) as well as p38β in the p38β AS group (FIG. 7F).
Nociceptive models. To directly induce spinal sensitization, rats received intrathecal injections of sP (30 nmol) which activates spinal NK-1 receptors and produces thermal hyperalgesia. Hua et al., Neuroscience 89: 525-534, 1999a; Piercey et al., Science 214: 1361-1363, 1981; Yashpal and Henry, Can J Physiol Pharmacol 61: 303-307, 1983. Thermally evoked paw withdrawal responses were assessed using a Hargreaves type testing device. Dirig et al., J Neurosci Methods 76: 183-191, 1997. Briefly, rats were placed on a glass surface maintained at 30° C. The thermal nociceptive stimulus originates from a projection bulb below the glass surface, and the stimulus is delivered separately to one hind paw at a time. The animals were allowed to acclimatize on the glass surface and basal paw withdrawal latencies (PWL) were then assessed for left and right paws at time (T)=−40, =30 and −20 min and expressed as the mean of the six measurements. At T=−10 min the animals received intrathecal vehicle or drug and at T=0, sP was injected. Withdrawal latencies were then assessed at T=15, 30, 45 and 60 min. Paw withdrawal latency for each group was expressed as the mean at each time point.

| Substance | phosphorylated p38 in the spinal cord after formalin injection [1] | IT SP-induced thermal hyperalgesia (paw withdrawal latency) [2] | Base line thermal thresholds [2] [s] |
| --- | --- | --- | --- |
| p38α AS: 20-nucleotide 2′-MOE phosphorothioate chimeric antisense AGGTGCTCAGGACTCCATTT, beginning at position 1081 in the rat p38α mRNA (all phosphorothioate, sugars by position and methylation of C not given here; 2'-MOE chimeric (gapmer) antisense) | did not prevent spinal p38 phosphorylation | not affected | 11.49 ± 0.3 |
| p38β AS: 20-nucleotide 2′-MOE phosphorothioate chimeric antisense GTATGTCCTCCTCGCGTGGA, beginning at position 439 in the rat p38β mRNA (all phosphorothioate, sugars by position and methylation of C not given here; 2'-MOE chimeric (gapmer) antisense) | reduction of phosphorylated p38 | attenuated; also recorded: blocked IT SP-evoked thermal hyperalgesia | 10.8 ± 0.5 |
